Experimental data as given in patent US7196061B2, “Compounds that modulate neuronal growth and their uses” (priority 2003, dated 2007).
Values joined by “and” are separate entries in the source; they are usually repeats but may differ in a detail not shown here. Equal entries are not always repeated. “Also recorded” adds a separate entry of the source. Positions of bridges follow the written chain, without caps; N, C: chain ends. Residues, ends and D or L forms follow the SMILES beside them.

Legend:
cerebellar neurons [1] = type: cell-based, rat; settings: K252a 100 nM, KT5720 200 nM, H-89 400 nM, Wortmannin and LY294002 10 μM; for effect on the neurite outgrowth response to BAG: BAG 6 μM; for effect on the neurite outgrowth response to BDNF: BDNF 5 ng/ml; for effect on the neurite outgrowth response to FGF2: FGF2 5 ng/ml
Procedure: To test the effects of various agents, the experiments were done as indicated in the figure using control media containing no additional supplements, or using media additionally supplement with K252a (100 nM final concentration), a PKA inhibitor (KT5720 at 200 nM final concentration or H-89 at 400 nM final concentration), or a PI3K inhibitor (Wortmannin or Ly294002, each at a final concentration of 10 μM). […] Each column in the figure indicates pooled results from at least three independent experiments, and the bars on each column indicate the SEM.
Reagents and culture treatment. Unless otherwise noted here, reagents in the experiments set forth in this Section were obtained and as set forth supra, in Section 7.1.3 et seq. In particular, recombinant human FGF2 and BDNF were obtained from R&D systems (Minneapolis, Minn.) and used at final concentrations of 5 ng/ml. The Trk receptor […] K252a was obtained from Calbiochem (San Diego, Calif.) and used at a final concentration of 100 nM. The Trk agonist peptide BAG (SEQ ID NO:18) was obtained from a commercial supplier (Multiple Peptide Systems, San Diego Calif.). […] A p75 NTR rabbit polyclonal antibody was raised against the extracellular domain of that receptor as previously described (see, Huber & Chao, Dev. Biol. 1995, 167:227–238) and used at a 1:200 dilution of serum. The known PKA inhibitors KT5720 and H-89 were obtained from Calbiochem (San Diego, Calif.) and used at final concentrations of 200 and 400 nM, respectively.

Trk receptor = Trk receptor (Rattus norvegicus, UniProt Q63604); settings: maximally active BAG (6 μM); peptides 125 μM, K252a 100 nM
Chain of Trk receptor (Q63604 32-821): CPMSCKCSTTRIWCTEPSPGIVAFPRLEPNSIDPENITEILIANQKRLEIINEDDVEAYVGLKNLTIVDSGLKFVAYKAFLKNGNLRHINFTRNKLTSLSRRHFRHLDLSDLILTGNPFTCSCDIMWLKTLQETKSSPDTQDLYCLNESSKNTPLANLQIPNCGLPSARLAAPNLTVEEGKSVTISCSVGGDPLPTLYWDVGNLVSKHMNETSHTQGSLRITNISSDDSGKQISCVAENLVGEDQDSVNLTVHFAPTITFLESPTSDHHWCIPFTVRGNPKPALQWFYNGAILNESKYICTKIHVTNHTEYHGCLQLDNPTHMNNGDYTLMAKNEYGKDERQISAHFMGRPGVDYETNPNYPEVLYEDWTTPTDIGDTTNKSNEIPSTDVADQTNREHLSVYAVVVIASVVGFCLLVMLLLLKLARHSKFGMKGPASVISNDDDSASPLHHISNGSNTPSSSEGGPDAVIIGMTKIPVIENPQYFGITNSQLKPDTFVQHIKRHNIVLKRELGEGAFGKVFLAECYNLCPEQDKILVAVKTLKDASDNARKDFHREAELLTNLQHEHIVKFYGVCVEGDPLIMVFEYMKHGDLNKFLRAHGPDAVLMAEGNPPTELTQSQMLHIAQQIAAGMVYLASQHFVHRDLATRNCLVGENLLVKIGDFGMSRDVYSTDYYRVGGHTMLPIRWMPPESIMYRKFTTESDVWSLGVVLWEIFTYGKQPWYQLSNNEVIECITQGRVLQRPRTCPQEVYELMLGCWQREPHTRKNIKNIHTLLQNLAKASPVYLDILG

TrkB receptor [2] = biological target: T1, TrkB receptor (Rattus norvegicus, UniProt Q63604); test: Neurite outgrowth assay, inhibition of the NT-4 response; type: cell-based
T1 construct: endogenous in cells; host or cells: primary rat cerebellar neurons co-cultured on 3T3 fibroblast monolayers
T1 sequence (Q63604 32-821): as above
Procedure: (§1) After 16 hours, the co-cultures were fixed and mean neurite length determined as has been previously described (Williams et al., J. Biol. Chem. 2000, 275:4007–4012).
(§2) The effect of this peptide on the BDNF and NT-4 response was tested in the above-described neurite outgrowth assay, with both NT ligands used at concentrations of 5 ng/ml.

TrkB receptor [3] = biological target: T1, TrkB receptor; test: Neurite outgrowth assay, inhibition of the BDNF response; type: cell-based
Procedure: as §1, §2

cerebellar neurons [4] = test: Neurite outgrowth assay, cerebellar neurons over 3T3 monolayers (stimulation / basal outgrowth); type: cell-based, rat; settings: for effect on basal neurite outgrowth: absence of any natural NT ligand, N-Ac-CRGEC-NH2 at concentrations greater than about 400 μM
Procedure: as §1

MAG inhibitory activity [5] = test: Neurite outgrowth over N-cadherin expressing 3T3 (LK8) cells with soluble MAG-Fc; type: cell-based, rat; settings: for effect on MAG-Fc inhibition of neurite outgrowth: MAG-Fc up to 25 μg/ml, Y27632 10 μM, BAG 6 μM, BDNF 5 ng/ml
Procedure: Reagents and culture treatment. […] In particular, recombinant human FGF2 and BDNF were obtained from R&D systems (Minneapolis, Minn.) and used at final concentrations of 5 ng/ml. The Trk receptor agonist K252a was obtained from Calbiochem (San Diego, Calif.) and used at a final concentration of 100 nM. The Trk agonist peptide BAG (SEQ ID NO:18) was obtained from a commercial supplier (Multiple Peptide Systems, San Diego Calif.). […] Monoclonal antibody to GT1b (clone GMR5) was obtained from Seikagaku America (Falmouth, Mass.) and used at a final concentration of 20 μg/ml. A p75 NTR rabbit polyclonal antibody was raised against the extracellular domain of that receptor as previously described (see, Huber & Chao, Dev. Biol. 1995, 167:227–238) and used at a 1:200 dilution of serum. The known PKA inhibitors KT5720 and H-89 were obtained from Calbiochem (San Diego, Calif.) and used at final concentrations of 200 and 400 nM, respectively. The known PI3K inhibitors Wortmnannin and LY294002 were also obtained from Calbiochem (San Diego, Calif.) and were both used at final concentrations of 10 μM. The Rho kinase inhibitor Y27632 was obtained from Tocris (Bristol, UK) and used at 10 μM final concentration.
All reagents were diluted into the co-culture media and in general added to the cultures just prior to plating of the neurons. The exception was antiserum raised against the p75^NTR receptor. Instead, a high density neuronal suspension was treated with a 1:200 dilution of the serum for 60 minutes. The neurons were then diluted by a factor of about 20, and seeded out for culture.

GT1b = test: Neurite outgrowth over N-cadherin expressing 3T3 cells with monoclonal antibody for GT1b; type: cell-based, rat; settings: antibody 20 μg/ml; Y27632 10 μM, BAG 6 μM
Procedure: Cultures were maintained for 22 hours before fixing and staining for GAP-43. […] Each column in the figure indicates pooled results from between 7 and 10 independent experiments, and the bars on each column indicate the SEM.
Reagents and culture treatment. […] In particular, recombinant human FGF2 and BDNF were obtained from R&D systems (Minneapolis, Minn.) and used at final concentrations of 5 ng/ml. The Trk receptor agonist K252a was obtained from Calbiochem (San Diego, Calif.) and used at a final concentration of 100 nM. The Trk agonist peptide BAG (SEQ ID NO:18) was obtained from a commercial supplier (Multiple Peptide Systems, San Diego Calif.). […] A p75 NTR rabbit polyclonal antibody was raised against the extracellular domain of that receptor as previously described (see, Huber & Chao, Dev. Biol. 1995, 167:227–238) and used at a 1:200 dilution of serum. The known PKA inhibitors KT5720 and H-89 were obtained from Calbiochem (San Diego, Calif.) and used at final concentrations of 200 and 400 nM, respectively.

p75^NTR receptor = test: Neurite outgrowth over N-cadherin expressing 3T3 cells after treatment with antibody to p75NTR; type: cell-based, rat; settings: Y27632 10 μM, BAG 6 μM, BDNF 5 ng/ml added after antibody treatment
Procedure: These antibody treated neurons were cultured after treatment in either: (1) control media without supplements; (2) the Rho kinase inhibitor Y27632 (10 μM final concentration); (3) BAG polypeptide (6 μM final concentration); or (4) BDNF neurotrophin (5 ng/ml final concentration). […] Each column in the figure indicates pooled results from the number of independent experiments indicated above it, and the bars on each column indicate the SEM.
Reagents and culture treatment. Unless otherwise noted here, reagents in the experiments set forth in this Section were obtained and as set forth supra, in Section 7.1.3 et seq. In particular, recombinant human FGF2 and BDNF were obtained from R&D systems (Minneapolis, Minn.) and used at final concentrations of 5 ng/ml. The Trk receptor […] K252a was obtained from Calbiochem (San Diego, Calif.) and used at a final concentration of 100 nM. The Trk agonist peptide BAG (SEQ ID NO:18) was obtained from a commercial supplier (Multiple Peptide Systems, San Diego Calif.). Recombinant MAG-Fc chimera was obtained from R&D Systems (Minneapolis, Minn.) and used at a final concentration of 5–25 μg/ml. Monoclonal antibody to GT1b (clone GMR5) was obtained from Seikagaku America (Falmouth, Mass.) and used at a final concentration of 20 μg/ml. […]

MAG inhibitory activity [6] = test: Neurite outgrowth over 3T3 cells that do not express N-cadherin with soluble MAG-Fc; type: cell-based, rat; settings: 3T3 without N-cadherin, BAG 6 μM
MAG inhibitory activity [7] = test: Substrate based neurite outgrowth assay in inhibitory environment (MAG-Fc coated wells); type: cell-based, rat; settings: for neurite growth in the inhibitory environment (overall / dose response) / neurite growth in the inhibitory environment at 33 μg/ml: 27 hours; for neurite growth in the inhibitory environment at 33 μg/ml: peptide 33 μg/ml
Procedure: First, slides are coated with polylysine at 17 μg/ml in distilled water (“dH2O) for thirty (30) minutes at room temperature. After aspirating the wells, a mixture of anti-human IgG and/or fibronectin (both at 10 μg/ml in DMEM) is added to wells to be coated with those compounds, and incubated for 120 minutes. […] PND2/3 rat cerebellar neurons are then added at 15K to each well in DMEM, 10% FCS, 25 mM KCl and 5 ng/ml FGF2, bringing the final media volume to 300 μl in each well. The cerebellar neurons are cultured for 27 hours before fixing and staining for GAP-43.

cerebellar neurons [8] = settings: FGF2 5 ng/ml, WIN55,2122-2 0.2 μM; linear peptide up to 125 μM
Procedure: The peptides were also tested for their ability to inhibit the neurite outgrowth response stimulated by other agents, including N-cadherin, FGF2 or a CB1 receptor agonist.

`O=S(=O)(NCCNC/C=C/c1ccc(Br)cc1)c1cccc2cnccc12` [H-89] was tested, and the “effect on the neurite outgrowth response to BAG” value (from here on “effect … to BAG”) (cerebellar neurons [1]) was “essentially abolished”, the “effect on the neurite outgrowth response to BDNF” value (“effect … to BDNF” below) (cerebellar neurons [1]) was “essentially abolished” and the “effect on the neurite outgrowth response to FGF2” value (“effect … to FGF2” below) (cerebellar neurons [1]) was “unaffected”.
`COC(=O)[C@@]1(O)C[C@H]2O[C@]1(C)n1c3ccccc3c3c4c(c5c6ccccc6n2c5c31)C(=O)NC4` [K252a] was tested, and the “inhibition of the neurite outgrowth response to the BAG peptide” value (“inhibition … to the BAG peptide” below) (Trk receptor) was “fully inhibited the response”, the “effect … to BAG” value (cerebellar neurons [1]) was “essentially abolished” and the “effect … to BDNF” value (cerebellar neurons [1]) was “essentially abolished”. For the same compound, the “effect … to FGF2” value (cerebellar neurons [1]) was “unaffected”.
In the case of `CCCCCCOC(=O)[C@]1(O)C[C@@H]2O[C@@]1(C)n1c3ccccc3c3c4c(c5c6ccccc6n2c5c31)C(=O)NC4` [KT5720], the “effect … to BAG” value (cerebellar neurons [1]) is reported as “essentially abolished”, the “effect … to BDNF” value (cerebellar neurons [1]) is reported as “essentially abolished” and the “effect … to FGF2” value (cerebellar neurons [1]) is reported as “unaffected”.
With `CC(=O)N[C@H]1CSSC[C@@H](C(N)=O)NC(=O)[C@H](CCC(=O)O)NC(=O)CNC(=O)[C@H](CCCNC(=N)N)NC(=O)[C@H](CCCNC(=N)N)NC(=O)[C@H](CO)NC1=O` [N-Ac-CSRRGEC-NH2] (Ac-CSRRGEC-NH2; disulfide 1-7) the “inhibition … to the BAG peptide” value (Trk receptor) was “can fully inhibit the activity”, the IC50 (TrkB receptor [2]) was ~55 µM and the “TrkB antagonist potency compared with NT-3 and NGF equivalent peptides” value (TrkB receptor [3]) was “more potent TrkB antagonist”. For the same compound, the IC50 (TrkB receptor [3]; 50% inhibition of the BDNF response, BDNF 5 ng/ml) was 27 µM and ~25 µM, the “fold better than the NGF and NT-3 derived peptides at inhibiting the BDNF response” value (TrkB receptor [3]; BDNF 5 ng/ml) was “approximately 5 fold” and the “effect on basal neurite outgrowth” value (cerebellar neurons [4]) was “neither the N-Ac-CSRRGEC-NH2 (SEQ ID NO:2) peptide nor its NGF or NT-3 equivalents had any effect on basal neurite outgrowth”.
`CCN(CC)CCCCNc1ncc2cc(-c3cc(OC)cc(OC)c3)c(NC(=O)NC(C)(C)C)nc2n1` [PD17304, reference compound] was tested, and the “inhibition … to the BAG peptide” value (Trk receptor) was “did not inhibit the response”.
`C[C@@H](N)[C@H]1CC[C@H](C(=O)Nc2ccncc2)CC1` [Y27632, reference compound] was tested, and the “effect on MAG-Fc inhibition of neurite outgrowth” value (from here on “effect on MAG-Fc inhibition”) (MAG inhibitory activity [5]) was “MAG-Fc does not inhibit neurite outgrowth”, the “effect on inhibition of neurite outgrowth by GT1b antibody” value (GT1b) was “effectively abolishes this effect” and the “effect on inhibitory response elicited by p75NTR antibody” value (p75^NTR receptor) was “does not elicit an inhibitory response”.
With “Ac-CSRRGELAASRRGELC-NH2 (cysteine pairing not given here) [BAG]” the “effect on neurite outgrowth in the absence of MAG-Fc” value (MAG inhibitory activity [6]) was “does not have a substantial effect”, the “effect on MAG-Fc inhibition” value (MAG inhibitory activity [6]; MAG-Fc 25 μg/ml, BDNF 5 ng/ml) was “does effectively block the MAG response” and the “lowest concentration that effectively blocks MAG inhibitor activity” value (MAG inhibitory activity [5]; MAG-Fc 25 μg/ml) was 30 nM. The “effect on MAG-Fc inhibition” value (MAG inhibitory activity [5]) was “MAG-Fc failed to inhibit neurite outgrowth”, the “effect on inhibition of neurite outgrowth by GT1b antibody” value (GT1b) was “the antibody's inhibitor effect is effectively eliminated” and the “effect on inhibitory response elicited by p75NTR antibody” value (p75^NTR receptor) was “effectively blocks the p75^NTR antibody's inhibitory effect”. The EC50 (cerebellar neurons [4]) was ~0.3 µM, the “concentration of near maximal neurite outgrowth response” value (cerebellar neurons [4]) was “about 600 Nm” and the “promotion of axonal growth compared with established growth promoting agents” value (cerebellar neurons [4]; BAG 6 μM, comparators 5 ng/ml) was “promotes axonal growth by the same extent as maximally active concentrations of NT-R, BDNF and FGF2”. The “neurite growth in the inhibitory environment at 10 μg/ml and 100 μg/ml” value (MAG inhibitory activity [7]; concentrations of 10 μg/ml and 100 μg/ml, MAG-Fc coating) was “promotes neurite growth”.
For Ac-SRRGELA-NH2, the “inhibition … to the BAG peptide” value (Trk receptor) was “very little to no effect”, the “inhibition of the NT-4 response” value (TrkB receptor [2]; NT-4 5 ng/ml, linear peptide up to 125 μM) was “did not inhibit any of the response” and the “inhibition of neurite outgrowth response stimulated by N-cadherin, FGF2 or a CB1 receptor agonist” value (cerebellar neurons [8]) was “did not inhibit any of the response”. For the same compound, the “inhibition of the BDNF response” value (TrkB receptor [3]; BDNF 5 ng/ml, linear peptide up to 125 μM) was “did not inhibit any of the response”.
With “Ac-dCdLdEGdRdRdSdAdAdLdEGdRdRdSdC-NHs [riBAG1]” the “neurite growth in the inhibitory environment (overall / dose response)” value (MAG inhibitory activity [7]; MAG-Fc coating) was “block MAG inhibitory activity and promote neurite outgrowth” and the “neurite growth in the inhibitory environment at 33 μg/ml” value (MAG inhibitory activity [7]; MAG-Fc coating) was “does not promote growth”.
In the case of N-Ac-CRGEC-NH2, the “effect on basal neurite outgrowth” value (cerebellar neurons [4]) is reported as “no effect on basal neurite outgrowth”.
With c(dLdEGdRdRdSdLdEGdRdRdS) [hriBAG2] the “neurite growth in the inhibitory environment (overall / dose response)” value (MAG inhibitory activity [7]; MAG-Fc coating) was “block MAG inhibitory activity and promote neurite outgrowth; also recorded: promoted substantial dose-dependent neurite growth”, the “dose at which a neurite growth response can be observed” value (MAG inhibitory activity [7]; inhibitory environment (MAG-Fc coating)) was “about 10 μg/ml” and the “neurite growth in the inhibitory environment at 33 μg/ml” value (MAG inhibitory activity [7]; MAG-Fc coating) was “almost double the value seen in the inhibitory environment without the peptidomimetic; also recorded: promoted neurite growth to a substantially greater extent than BDNF, BAG peptide, and the hBAG2 and riBAG1 at any concentration”.
cyclo(SRRGELSRRGEL) [hBAG2] was tested, and the “neurite growth in the inhibitory environment (overall / dose response)” value (MAG inhibitory activity [7]; MAG-Fc coating) was “block MAG inhibitory activity and promote neurite outgrowth” and the “neurite growth in the inhibitory environment at 33 μg/ml” value (MAG inhibitory activity [7]; MAG-Fc coating) was “promotes neurite growth; also recorded: promoted neurite growth to an extent comparable to BAG polypeptide at a concentration of 10 μg/ml”.
